Legend:
[1] = biological target: T1, Recombinant STAT3 protein (STAT3(G127-I722)) (Homo sapiens, UniProt P40763); assay: STAT3 Fluorescence Polarization (FP) Assay; assay type: binding; settings: STAT3(G127-I722) 25 nM, probe 5-FAM-GpYLPQTV-NH2 2 nM, 45-minute incubation
T1 construct: Recombinant STAT3 protein (STAT3(G127-I722))
How it was run: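 STAT3(G127-I722), 25 nM, was mixed with 2 nM 5-FAM-GpYLPQTV-NH2 probe in HEPES pH 7.4 buffer with 1% DMSO and serially diluted compound. FP (mP) was read after 45 min at room temperature. IC50 came from nonlinear regression.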

[2] = biological target: T2, Recombinant STAT6 protein (STAT6(W123-T658)) (Homo sapiens, UniProt P42226); assay: STAT6 Fluorescence Polarization (FP) Assay; assay type: binding; settings: STAT6(W123-T658) 250 nM, probe 5-FAM-ApYKPFQDLI-NH2 2 nM, 45-minute incubation
T2 construct: Recombinant STAT6 protein (STAT6(W123-T658))
T2 sequence (P42226 123-658): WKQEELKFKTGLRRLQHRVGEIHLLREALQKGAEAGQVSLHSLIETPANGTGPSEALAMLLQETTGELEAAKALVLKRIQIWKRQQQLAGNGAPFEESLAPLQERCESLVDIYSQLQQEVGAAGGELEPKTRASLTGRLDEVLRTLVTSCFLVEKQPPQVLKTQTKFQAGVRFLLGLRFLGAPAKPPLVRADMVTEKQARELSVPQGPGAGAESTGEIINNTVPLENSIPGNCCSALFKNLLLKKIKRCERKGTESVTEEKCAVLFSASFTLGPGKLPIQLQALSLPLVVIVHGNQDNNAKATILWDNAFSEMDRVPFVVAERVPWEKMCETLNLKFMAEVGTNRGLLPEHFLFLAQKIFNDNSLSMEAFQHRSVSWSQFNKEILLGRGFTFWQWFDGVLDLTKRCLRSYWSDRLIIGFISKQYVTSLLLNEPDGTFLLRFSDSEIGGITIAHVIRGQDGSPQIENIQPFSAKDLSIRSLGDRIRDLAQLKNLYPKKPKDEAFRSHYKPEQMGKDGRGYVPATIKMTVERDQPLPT
How it was run: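 Displacement of a fluorescent phosphotyrosine peptide (5-FAM-ApYKPFQDLI-NH2, 2 nM) from STAT6(W123-T658) (250 nM), 1% DMSO, pH 7.4 HEPES buffer. After 45 min at room temperature, polarization (mP) was plotted versus log compound concentration and fitted by nonlinear regression to give IC50.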

T1 sequence (P40763 127-722): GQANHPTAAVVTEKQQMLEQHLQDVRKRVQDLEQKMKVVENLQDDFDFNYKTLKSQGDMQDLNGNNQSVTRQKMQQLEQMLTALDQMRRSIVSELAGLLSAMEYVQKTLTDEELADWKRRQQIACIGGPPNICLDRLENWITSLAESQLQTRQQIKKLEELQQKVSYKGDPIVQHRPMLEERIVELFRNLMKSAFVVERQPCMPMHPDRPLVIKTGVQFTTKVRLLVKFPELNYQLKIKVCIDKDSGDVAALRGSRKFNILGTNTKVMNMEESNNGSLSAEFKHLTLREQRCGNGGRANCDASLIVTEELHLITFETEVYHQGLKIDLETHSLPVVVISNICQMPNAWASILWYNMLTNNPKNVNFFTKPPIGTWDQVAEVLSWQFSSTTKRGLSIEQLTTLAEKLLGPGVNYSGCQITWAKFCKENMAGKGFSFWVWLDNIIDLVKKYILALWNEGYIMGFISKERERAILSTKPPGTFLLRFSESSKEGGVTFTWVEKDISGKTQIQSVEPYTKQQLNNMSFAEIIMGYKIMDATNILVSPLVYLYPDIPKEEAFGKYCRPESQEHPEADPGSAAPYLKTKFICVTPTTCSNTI

SMILES	IC50 [1] [nM]	IC50 [2] [nM]
CC(=O)N1CC[C@H]2CC[C@@H](C(=O)Nc3ccc4ncncc4c3)N2C(=O)[C@@H](NC(=O)c2cc3cc(C(F)(F)P(=O)(O)O)ccc3s2)C1 [Compound 172, ((2-(((5S,8S,10aR)-3-acetyl-6-oxo-8-(quinazolin-6-ylcarbamoyl)decahydropyrrolo[1,2-a][1,5]diazocin-5-yl)carbamoyl)benzo[b]thiophen-5-yl)difluoromethyl)phosphonic acid]	1000 to 10000	300 to 3000
CC(=O)N1CC[C@H]2CC[C@@H](C(=O)N(C)c3ccc(C(F)F)cc3)N2C(=O)[C@@H](NC(=O)c2cc3cc(C(F)(F)P(=O)(O)O)ccc3s2)C1 [Compound 202, ((2-(((5S,8S,10aR)-3-acetyl-8-((4-(difluoromethyl)phenyl)(methyl)carbamoyl)-6-oxodecahydropyrrolo[1,2-a][1,5]diazocin-5-yl)carbamoyl)benzo[b]thiophen-5-yl)difluoromethyl)phosphonic acid]	1000 to 10000	300 to 3000
CC(=O)N1CC[C@H]2CC[C@@H](C(=O)N3CC[C@@H](c4ccccc4)C3)N2C(=O)[C@@H](NC(=O)c2cc3cc(C(F)(F)P(=O)(O)O)ccc3s2)C1 [Compound 97, ((2-(((5S,8S,10aR)-3-acetyl-6-oxo-8-((S)-3-phenylpyrrolidine-1-carbonyl)decahydropyrrolo[1,2-a][1,5]diazocin-5-yl)carbamoyl)benzo[b]thiophen-5-yl)difluoromethyl)phosphonic acid]	100 to 1000	≤ 300
Cc1ccc2onc(C(=O)N3CC[C@H]4CC[C@@H](C(=O)N5CCOCC5)N4C(=O)[C@@H](NC(=O)c4cc(C#N)c5ccc(CP(=O)(O)O)cc5c4)C3)c2c1 [Compound 378, ((5-cyano-7-(((5S,8S, 10aR)-3-(5-methylbenzo[d]isoxazole-3-carbonyl)-8-(morpholine-4-carbonyl)-6-oxodecahydropyrrolo [1,2-a][1,5]diazocin-5-yl)carbamoyl)naphthalen-2-yl)methyl) phosphonic acid]	> 10000	300 to 3000
CC(=O)N1CC[C@H]2CC[C@@H](C(=O)N3CCCC3Cc3ccccc3F)N2C(=O)[C@@H](NC(=O)c2cc3cc(C(F)(F)P(=O)(O)O)ccc3[nH]2)C1 (stereo partly drawn) [Compound 133, ((2-(((5S,8S,10aR)-3-acetyl-8-(2-(2-fluorobenzyl)pyrrolidine-1-carbonyl)-6-oxodecahydropyrrolo[1,2-a][1,5]diazocin-5-yl)carbamoyl)-1H-indol-5-yl)difluoromethyl)phosphonic acid]	1000 to 10000	300 to 3000
N#C[C@@H]1CN(C(=O)[C@@H]2CC[C@@H]3CCN(CC(F)F)C[C@H](NC(=O)c4cc5cc(C(F)P(=O)(O)O)ccc5s4)C(=O)N32)C[C@H]1c1ccccc1 (stereo partly drawn) [Compound 395, ((2-(((5S,8S,10aR)-8-((3S,4R)-3-cyano-4-phenyl-pyrrolidine-1-carbonyl)-3-(2,2-difluoroethyl)-6-oxodecahydropyrrolo [1,2-a][1,5]diazocin-5-yl)carbamoyl)benzo[b]thiophen-5-yl)fluoromethyl) phosphonic acid]	1000 to 10000	≤ 300
CC(=O)N1CC[C@H]2CC[C@@H](C(=O)N3CC(c4cc[nH]c(=O)c4)CC34CC4)N2C(=O)[C@@H](NC(=O)c2ccc3ccc(C(F)(F)P(=O)(O)O)cc3c2)C1 (stereo partly drawn) [Compound 37, ((7-(((5S,8S,10aR)-3-acetyl-6-oxo-8-(6-(2-oxo-1,2-dihydropyridin-4-yl)-4-azaspiro[2.4]heptane-4-carbonyl)decahydropyrrolo[1,2-a][1,5]diazocin-5-yl)carbamoyl)naphthalen-2-yl)difluoromethyl)phosphonic acid]	> 10000	≤ 300
CC(=O)N1CC[C@H]2CC[C@@H](C(=O)Nc3ccc(-c4ccccc4)cc3Cc3nccs3)N2C(=O)[C@@H](NC(=O)c2cc3cc(C(F)(F)P(=O)(O)O)ccc3s2)C1 [Compound 196, ((2-(((5S,8S,10aR)-3-acetyl-6-oxo-8-((3-(thiazol-2-ylmethyl)-[1,1′-biphenyl]-4-yl)carbamoyl)decahydropyrrolo[1,2-a][1,5]diazocin-5-yl)carbamoyl)benzo[b]thiophen-5-yl)difluoromethyl)phosphonic acid]	100 to 1000	300 to 3000
CC(=O)N1CC[C@H]2CC[C@@H](C(=O)N3C[C@H](C#N)C[C@H]3c3ccccc3)N2C(=O)[C@@H](NC(=O)c2cc3cc(C(F)(F)P(=O)(O)O)ccc3s2)C1 (relative stereo) [Compound 206, ((2-(((5S,8S,10aR)-3-acetyl-8-((rel-trans)-4-cyano-2-phenylpyrrolidine-1-carbonyl)-6-oxodecahydropyrrolo[1,2-a][1,5]diazocin-5-yl)carbamoyl)benzo[b]thiophen-5-yl)difluoromethyl)phosphonic acid]	1000 to 10000	300 to 3000
Cc1ccc2[nH]nc(C(=O)N3CC[C@H]4CC[C@@H](C(=O)N(C)C)N4C(=O)[C@@H](NC(=O)c4cc5cc(CP(=O)(O)O)ccc5s4)C3)c2c1 [Compound 230, ((2-(((5S,8S,10aR)-8-(dimethylcarbamoyl)-3-(5-methyl-1H-indazole-3-carbonyl)-6-oxodecahydropyrrolo[1,2-a][1,5]diazocin-5-yl)carbamoyl)benzo[b]thiophen-5-yl)methyl)phosphonic acid]	> 10000	3000 to 30000
CC(=O)N1CC[C@H]2CC[C@@H](C(=O)N3CC(c4ccn(C)c(=O)c4)CC34CC4)N2C(=O)[C@@H](NC(=O)c2ccc3ccc(C(F)P(=O)(O)O)cc3c2)C1 (stereo partly drawn) [Compound 354, ((7-(((5S,8S,10a R)-3-acetyl-8-(6-(1-methyl-2-oxo-1,2-dihydropyridin-4-yl)-4-azaspiro[2.4]heptane-4-carbonyl)-6-oxodeca-hydropyrrolo [1,2-a][1,5]diazocin-5-yl)carbamoyl)naphthalen-2-yl)fluoromethyl) phosphonic acid]	> 10000	≤ 300
CC(=O)N1CC[C@H]2CC[C@@H](C(=O)N3C[C@H](c4ccccc4)[C@@H](C#N)C3)N2C(=O)[C@@H](NC(=O)c2ccc3ccc(C(F)(F)P(=O)(O)O)cc3c2)C1 (relative stereo) [Compound 203, ((7-(((5S,8S,10aR)-3-acetyl-8-(rel-trans)-3-cyano-4-phenylpyrrolidine-1-carbonyl)-6-oxodecahydropyrrolo[1,2-a][1,5]diazocin-5-yl)carbamoyl)naphthalen-2-yl)difluoromethyl)phosphonic acid]	1000 to 10000	≤ 300
CN(C(=O)[C@@H]1CC[C@@H]2CCN(CC(F)F)C[C@H](NC(=O)c3ccc4ccc(C(F)(F)P(=O)(O)O)cc4c3)C(=O)N21)C1CCN(S(C)(=O)=O)CC1 [Compound 244, ((7-(((5S,8S,10aR)-3-(2,2-difluoroethyl)-8-(methyl(1-(methylsulfonyl)piperidin-4-yl)carbamoyl)-6-oxodecahydropyrrolo[1,2-a][1,5]diazocin-5-yl)carbamoyl)naphthalen-2-yl)difluoromethyl)phosphonic acid]	1000 to 10000	300 to 3000
CC(=O)N1CC[C@H]2CC[C@@H](C(=O)N3C[C@H](C(N)=O)[C@@H](c4ccccc4)C3)N2C(=O)[C@@H](NC(=O)c2cc3cc(C(F)(F)P(=O)(O)O)ccc3s2)C1 (single isomer, unassigned) [Compound 59, ((2-(((5S,8S,10aR)-3-acetyl-8-((3R,4S or 3S,4R)-3-carbamoyl-4-phenylpyrrolidine-1-carbonyl)-6-oxodecahydropyrrolo[1,2-a][1,5]diazocin-5-yl)carbamoyl)benzo[b]thiophen-5-yl)difluoromethyl)phosphonic acid]	1000 to 10000	≤ 300
CC(=O)N1C[C@H](NC(=O)[C@@H]2CC[C@@H]3CCN(Cc4ncccn4)C[C@H](NC(=O)c4cc5cc(C(F)P(=O)(O)O)ccc5s4)C(=O)N32)[C@@H](F)C1 (stereo partly drawn) [Compound 400, ((2-(((5S,8S,10aR)-8-(((3S,4S)-1-acetyl-4-fluoropyrrolidin-3-yl)carbamoyl)-6-oxo-3-(pyrimidin-2-ylmethyl)decahydropyrrolo[1,2-a][1,5]diazocin-5-yl)carbamoyl)benzo[b]thiophen-5-yl)fluoromethyl)phosphonic acid]	100 to 1000	3000 to 30000
CC(C)CN1CC[C@H]2CC[C@@H](C(=O)N(C)C)N2C(=O)[C@@H](NC(=O)c2cc3cc(C(F)(F)P(=O)(O)O)ccc3[nH]2)C1 [Compound 224, ((2-(((5S,8S,10aR)-8-(dimethylcarbamoyl)-3-isobutyl-6-oxodecahydropyrrolo[1,2-a][1,5]diazocin-5-yl)carbamoyl)-1H-indol-5-yl)difluoromethyl)phosphonic acid]	1000 to 10000	3000 to 30000

From patent US20250179103A1, “6-OXODECAHYDROPYRROLO[1,2-A][1,5]DIAZOCINE AND 6-OXODECAHYDRO-4H-PYRROLO[2,1-D][1,5]THIAZOCINE DERIVATIVES AS STAT3 AND STAT6 MODULATORS FOR THE TREATMENT OF CANCER AND INFLAMMATORY CONDITIONS” (Recludix Pharma, Inc., priority 2022, published 2025)
